Test results: PubChem BioAssay (NCI)
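1) Cells in 96-well plates. 2) Compound, 48 h, 5 concentrations. 3) Linear interpolation between surrounding doses. 4) Unreached endpoint = highest concentration. GI50 marks 50% less growth. TGI: concentration producing complete growth inhibition.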

How the values were obtained:
Test in all cases: growth of human tumour cells (NCI), 48 h
SK-MEL-28 melanoma = system: SK-MEL-28 melanoma
SR leukemia = system: SR leukemia
IGROV1 ovarian = system: IGROV1 ovarian
TK-10 renal = system: TK-10 renal
OVCAR-8 ovarian = system: OVCAR-8 ovarian
HCT-116 colon = system: HCT-116 colon
SK-MEL-5 melanoma = system: SK-MEL-5 melanoma
HL-60(TB) leukemia = system: HL-60(TB) leukemia
OVCAR-5 ovarian = system: OVCAR-5 ovarian
CCRF-CEM leukemia = system: CCRF-CEM leukemia
HT29 colon = system: HT29 colon
HCT-15 colon = system: HCT-15 colon
NCI-H522 lung = system: NCI-H522 lung
A498 renal = system: A498 renal
UACC-257 melanoma = system: UACC-257 melanoma
SNB-19 CNS = system: SNB-19 CNS
UACC-62 melanoma = system: UACC-62 melanoma
SK-OV-3 ovarian = system: SK-OV-3 ovarian
MDA-MB-231 breast = system: MDA-MB-231 breast
A549 NSCLC = system: A549 NSCLC
SF-268 CNS = system: SF-268 CNS
PC-3 prostate = system: PC-3 prostate
NCI-H23 lung = system: NCI-H23 lung
HOP-92 NSCLC = system: HOP-92 NSCLC
MALME-3M melanoma = system: MALME-3M melanoma
OVCAR-4 ovarian = system: OVCAR-4 ovarian
NCI-H226 lung = system: NCI-H226 lung
SF-539 CNS = system: SF-539 CNS
NCI/ADR-RES ovarian = system: NCI/ADR-RES ovarian
HS 578T breast = system: HS 578T breast
T-47D breast = system: T-47D breast
786-0 renal = system: 786-0 renal
CAKI-1 renal = system: CAKI-1 renal
SN12C renal = system: SN12C renal
MOLT-4 leukemia = system: MOLT-4 leukemia
OVCAR-3 ovarian = system: OVCAR-3 ovarian
HCC-2998 colon = system: HCC-2998 colon
M14 melanoma = system: M14 melanoma
DU-145 prostate = system: DU-145 prostate
COLO 205 colon = system: COLO 205 colon
U251 CNS = system: U251 CNS
SW-620 colon = system: SW-620 colon
SF-295 CNS = system: SF-295 CNS
ACHN renal = system: ACHN renal
K-562 leukemia = system: K-562 leukemia
MDA-MB-435 = system: MDA-MB-435
SNB-75 CNS = system: SNB-75 CNS
MCF7 breast = system: MCF7 breast
RXF 393 renal = system: RXF 393 renal
MDA-MB-468 breast = system: MDA-MB-468 breast
HOP-62 NSCLC = system: HOP-62 NSCLC
KM12 colon = system: KM12 colon
BT-549 breast = system: BT-549 breast
SK-MEL-2 melanoma = system: SK-MEL-2 melanoma
EKVX NSCLC = system: EKVX NSCLC
RPMI-8226 leukemia = system: RPMI-8226 leukemia
UO-31 renal = system: UO-31 renal
LOX IMVI melanoma = system: LOX IMVI melanoma

`O=C(NN1C(=O)/C(=C/C=C/c2ccc([N+](=O)[O-])o2)SC1=S)c1ccccc1O` was tested, and the GI50 (SK-MEL-28 melanoma) was 1680 nM, the TGI (SK-MEL-28 melanoma) was 3130 nM and the GI50 (SR leukemia) was 221 nM. For the same molecule, the TGI (SR leukemia) was over 100000 nM, the GI50 (IGROV1 ovarian) was 1230 nM and the TGI (IGROV1 ovarian) was 2480 nM. The GI50 (TK-10 renal) was 1960 nM, the TGI (TK-10 renal) was 4190 nM and the GI50 (OVCAR-8 ovarian) was 366 nM. The TGI (OVCAR-8 ovarian) was 1600 nM, the GI50 (HCT-116 colon) was 197 nM and the TGI (HCT-116 colon) was 395 nM. The GI50 (SK-MEL-5 melanoma) was 771 nM, the TGI (SK-MEL-5 melanoma) was 2030 nM and the GI50 (HL-60(TB) leukemia) was 1730 nM. The TGI (HL-60(TB) leukemia) was 9470 nM, the GI50 (OVCAR-5 ovarian) was 1840 nM and the TGI (OVCAR-5 ovarian) was 3300 nM. For the same molecule, the GI50 (CCRF-CEM leukemia) was 318 nM, the TGI (CCRF-CEM leukemia) was 1490 nM and the GI50 (HT29 colon) was 1000 nM. The TGI (HT29 colon) was 2780 nM, the GI50 (HCT-15 colon) was 149 nM and the TGI (HCT-15 colon) was 340 nM. The GI50 (NCI-H522 lung) was 262 nM, the TGI (NCI-H522 lung) was 749 nM and the GI50 (A498 renal) was 18300 nM. For the same molecule, the TGI (A498 renal) was 32600 nM, the GI50 (UACC-257 melanoma) was 1720 nM and the TGI (UACC-257 melanoma) was 3600 nM. It also gave a GI50 (SNB-19 CNS) of 1760 nM, a TGI (SNB-19 CNS) of 3340 nM and a GI50 (UACC-62 melanoma) of 675 nM. For the same molecule, the TGI (UACC-62 melanoma) was 1900 nM, the GI50 (SK-OV-3 ovarian) was 2260 nM and the TGI (SK-OV-3 ovarian) was 5280 nM. It also gave a GI50 (MDA-MB-231 breast) of 257 nM, a TGI (MDA-MB-231 breast) of 613 nM and a GI50 (A549 NSCLC) of 2980 nM. For the same molecule, the TGI (A549 NSCLC) was 10500 nM, the GI50 (SF-268 CNS) was 1800 nM and the TGI (SF-268 CNS) was 4200 nM. The GI50 (PC-3 prostate) was 1920 nM, the TGI (PC-3 prostate) was 4940 nM and the GI50 (NCI-H23 lung) was 846 nM. The TGI (NCI-H23 lung) was 2170 nM, the GI50 (HOP-92 NSCLC) was 1680 nM and the TGI (HOP-92 NSCLC) was 4130 nM. For the same molecule, the GI50 (MALME-3M melanoma) was 223 nM, the TGI (MALME-3M melanoma) was 507 nM and the GI50 (OVCAR-4 ovarian) was 1720 nM. For the same molecule, the TGI (OVCAR-4 ovarian) was 3720 nM, the GI50 (NCI-H226 lung) was 1110 nM and the TGI (NCI-H226 lung) was 2690 nM. The GI50 (SF-539 CNS) was 1310 nM, the TGI (SF-539 CNS) was 2670 nM and the GI50 (NCI/ADR-RES ovarian) was 1780 nM. For the same molecule, the TGI (NCI/ADR-RES ovarian) was 5750 nM, the GI50 (HS 578T breast) was 2100 nM and the TGI (HS 578T breast) was 7470 nM. For the same molecule, the GI50 (T-47D breast) was 1630 nM, the TGI (T-47D breast) was 3230 nM and the GI50 (786-0 renal) was 1110 nM. For the same molecule, the TGI (786-0 renal) was 2330 nM, the GI50 (CAKI-1 renal) was 1330 nM and the TGI (CAKI-1 renal) was 2670 nM. For the same molecule, the GI50 (SN12C renal) was 237 nM, the TGI (SN12C renal) was 714 nM and the GI50 (MOLT-4 leukemia) was 390 nM. For the same molecule, the TGI (MOLT-4 leukemia) was 7560 nM, the GI50 (OVCAR-3 ovarian) was 1230 nM and the TGI (OVCAR-3 ovarian) was 2540 nM. It also gave a GI50 (HCC-2998 colon) of 1370 nM, a TGI (HCC-2998 colon) of 2700 nM and a GI50 (M14 melanoma) of 298 nM. The TGI (M14 melanoma) was 873 nM, the GI50 (DU-145 prostate) was 1590 nM and the TGI (DU-145 prostate) was 3020 nM. It also gave a GI50 (COLO 205 colon) of 957 nM, a TGI (COLO 205 colon) of 2280 nM and a GI50 (U251 CNS) of 1270 nM. For the same molecule, the TGI (U251 CNS) was 2620 nM, the GI50 (SW-620 colon) was 196 nM and the TGI (SW-620 colon) was 426 nM. It also gave a GI50 (SF-295 CNS) of 1790 nM, a TGI (SF-295 CNS) of 3420 nM and a GI50 (ACHN renal) of 1460 nM. For the same molecule, the TGI (ACHN renal) was 2780 nM, the GI50 (K-562 leukemia) was 276 nM and the TGI (K-562 leukemia) was over 33300 nM. For the same molecule, the GI50 (MDA-MB-435) was 371 nM, the TGI (MDA-MB-435) was 1380 nM and the GI50 (SNB-75 CNS) was 1290 nM. It also gave a TGI (SNB-75 CNS) of 5840 nM, a GI50 (MCF7 breast) of 432 nM and a TGI (MCF7 breast) of 2020 nM. For the same molecule, the GI50 (RXF 393 renal) was 1420 nM, the TGI (RXF 393 renal) was 2760 nM and the GI50 (MDA-MB-468 breast) was 1400 nM. For the same molecule, the TGI (MDA-MB-468 breast) was 3070 nM, the GI50 (HOP-62 NSCLC) was 1620 nM and the TGI (HOP-62 NSCLC) was 3110 nM. The GI50 (KM12 colon) was 1620 nM, the TGI (KM12 colon) was 3770 nM and the GI50 (BT-549 breast) was 673 nM. For the same molecule, the TGI (BT-549 breast) was 1800 nM, the GI50 (SK-MEL-2 melanoma) was 663 nM and the TGI (SK-MEL-2 melanoma) was 2060 nM. The GI50 (EKVX NSCLC) was 1370 nM, the TGI (EKVX NSCLC) was 2750 nM and the GI50 (RPMI-8226 leukemia) was 379 nM. It also gave a TGI (RPMI-8226 leukemia) of 2530 nM, a GI50 (UO-31 renal) of 1240 nM and a TGI (UO-31 renal) of 2490 nM. The GI50 (LOX IMVI melanoma) was 194 nM and the TGI (LOX IMVI melanoma) was 402 nM.
